Reference: patent US6900200B2, “Tricyclic hydroxy carboxamides and derivatives thereof tocolytic oxytocin receptor antagonists” (Wyeth, priority 2001, dated 2005)

Biological target: T1, human vasopressin V1a receptor subtype (Homo sapiens, UniProt P37288)
T1 construct: host or cells: CHO cells; pZeoSV vector for the Thibonnier line
Assay: Vasopressin binding in CHO cell membranes expressing human vasopressin V1a subtype receptors ([3H]Manning ligand radioligand binding)
Conditions: for inhibition at 0.1 µM: @ 100 nM; for IC50: value printed in parentheses
Description: Vasopressin Binding in Chinese Hamster Ovary Cell Membranes Expressing Human Vasopressin V1a Subtype Receptors
Chinese hamster ovary cells (CHO cells) stably transfected with the human vasopressin V1a subtype receptors were either obtained from BioSignal Inc., 1744 rue Williams, Montreal, Quebec, Canada or obtained from M. Thibonnier, Case Western Reserve University School of Medicine, Cleveland, Ohio.
A. Passaging and Amplification of Cells
CHO cells transfected with the human vasopressin V1a subtype receptors obtained from M. Thibonnier (pZeoSV vector) are allowed to grow to confluency (approx. >90%) in T-150 flasks under sterile conditions, in a cell culture medium of F-12 Nutrient Mixture (HAM) with L-glutamine (Gibco Cat. #11765-054) containing 15 mM HEPES (Gibco Cat. #15630-080), 1% antibiotic/antimycotic (add 5 mL 100×, Gibco Cat. #15240-062 per 500 mL F-12), 250 μg/mL Zeocin (add 1.25 mL of 100 mg/mL Invitrogen R-250-01 per 500 mL F-12) and 10% Fetal Bovine Serum (Qualified, heat inactivated, Gibco Cat. #16140-063). The medium is removed by aspiration and the cells are washed with 10 mL of Hank's Balanced Salt solution (Gibco Cat. #14175-095). The salt solution is removed by aspiration and the cells are trypsinized with 5 mL of trypsin-EDTA (0.05% trypsin, 0.53 mM EDTA-4Na, Gibco Cat. #25300-070) for 1 min. The trypsin is removed by aspiration and the cells dislodged by tapping. Cell Culture medium (e.g. 30 mL for 1:30 split) is immediately added and mixed well to inactivate trypsin. 1 mL of detached cells is added to new culture flasks containing fresh cell culture medium (e.g., into 25 mL per T-150 flask), and mixed gently. The cells are incubated at 37° C. in 5% CO2. The medium is changed at 3 to 4 days interval (or as appropriate). The cells grow to confluency (approx. >75%-95%) within 7-8 days. All steps are done under sterile conditions.
The cells are washed twice gently with Hank's Balanced Salt solution (e.g,. use 10 mL per T-150 flask). The excess is removed and the cells are bathed for 15-30 min. in an enzyme-free Cell Dissociation Buffer (e.g. use 8 mL Hank's Based, Gibco Cat. #13150-016 per T-150 flask) until the cells are loosened. The contents are transferred to centrifuge tubes (50 mL) kept in an ice bath. All subsequent steps are done at 4° C. The tubes are centrifuged at 300×g for 15 min (1380 rpm on SORVAL, Model RT6000D, using the rotor for 50 mL tubes). The supernatant is discarded and the cells suspended in homogenizing buffer(10 mM Tris-HCl containing 0.25 M sucrose and 1 mM EDTA, pH 7.4) ensuring that the volume of the buffer is about ten times the volume of the cell pellet. The cells are pooled into a centrifuge tube (50 mL) and homogenized with Polytron at setting 6 for 10 sec. The homogenate is transferred into a Potter-Elvjehm homogenizer and homogenized with 3 strokes. The homogenate is centrifuged at 1500×g for 10 min at 4° C. (3100 rpm using SORVAL, model RT6000D, using the rotor for 50 mL tubes). The pellet is discarded. The supernatant is centrifuged at 100,000×g for 60 min. at 4° C. (Beckman L8-80M ultracentrifuge; spin at 37,500 rpm with rotor type 70 Ti for 50 mL tubes; 38,000 rpm with type 80Ti for 15 mL tubes; or 35,800 rpm with rotor type 45Ti). The supernantant is discarded and the pellet suspended in 3 to 4 mL of Tris buffer (50 mM TRIS—HCl, pH 7.4). The protein content is estimated by the Bradford or Lowry method. The volume of the membrane suspension is adjusted with the membrane buffer (50 mM Tris-HCl containing 0.1% BSA and 0.1 mM PMSF) to give 3.0 mg/mL (or as appropriate) of protein. The membranes are aliquoted and stored at −70° C.
C. Radioligand Binding Assay […]

T1 sequence (P37288 whole entry): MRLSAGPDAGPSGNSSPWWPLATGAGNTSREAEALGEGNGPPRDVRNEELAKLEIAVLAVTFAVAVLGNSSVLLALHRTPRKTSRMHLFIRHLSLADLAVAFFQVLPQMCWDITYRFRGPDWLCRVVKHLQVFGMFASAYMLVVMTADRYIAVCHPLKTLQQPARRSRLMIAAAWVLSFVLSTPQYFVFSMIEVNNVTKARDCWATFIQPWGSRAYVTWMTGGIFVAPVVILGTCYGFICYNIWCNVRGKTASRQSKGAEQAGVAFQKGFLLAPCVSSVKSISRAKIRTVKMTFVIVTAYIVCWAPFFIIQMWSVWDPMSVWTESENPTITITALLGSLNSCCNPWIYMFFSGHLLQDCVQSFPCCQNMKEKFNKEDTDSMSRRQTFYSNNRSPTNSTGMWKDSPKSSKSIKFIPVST

Row | inhibition at 0.1 µM [%] | IC50 [nM] | Compound
1 | 59 | – | COc1ccccc1-c1ccc(C(=O)N2Cc3ccc(C(=O)N(C)C[C@H](O)CO)n3Cc3ccccc32)cc1C (single isomer, unassigned) [Example 15]
2 | 68 | – | COc1ccccc1-c1ccc(C(=O)N2Cc3ccc(C(=O)N(C)C[C@@H](O)CO)n3Cc3ccccc32)cc1C (single isomer, unassigned) [Example 16]
3 | – | 1080 | COc1cc(C(=O)N2Cc3ccc(C(=O)N(C)C[C@@H](O)[C@H](O)[C@H](O)[C@@H](O)CO)n3Cc3ccccc32)ccc1-c1ccccc1C(F)(F)F (stereo in doubt) [Example 23, 10-{[2-Methoxy-2′-trifluoromethyl-[1,1′-biphenyl]-4-yl]carbonyl}-N-methyl-N-[(2R,3S,4R,5S)-2,3,4,5,6-pentahydroxyhexyl]-10,11-dihydro-5H-pyrrolo[2,1-c][1,4]benzodiazepine-3-carboxamide]
4 | – | 1390 | Cc1cc(C(=O)N2Cc3ccc(C(=O)N(CCO)CCO)n3Cc3ccccc32)ccc1-c1ccccc1C(F)(F)F [Example 1, 10-[(2-Methyl-2′-trifluoromethyl-[1,1′-biphenyl]-4-yl)carbonyl]-10,11-dihydro-5H-pyrrolo[2,1-c][1,4]benzodiazepine-3-carboxylic acid bis-(2-hydroxy-ethyl)-amide]
5 | – | 790 | Cc1cc(C(=O)N2Cc3ccc(C(=O)N(C)CC(O)CO)n3Cc3ccccc32)ccc1-c1ccccc1C(F)(F)F (stereo not drawn) [Example 2, 10-[(2-Methyl-2′-trifluoromethyl-[1,1′-biphenyl]-4-yl)carbonyl]-10,11-dihydro-5H-pyrrolo[2,1-c][1,4]benzodiazepine-3-carboxylic acid (2,3-dihydroxy-propyl)-methyl-amide]
6 | 7 | – | Cc1cc(C(=O)N2Cc3ccc(C(=O)NC(CO)(CO)CO)n3Cc3ccccc32)ccc1-c1ccccc1C(F)(F)F [Example 3, 10-[(2-Methyl-2′-trifluoromethyl-[1,1′-biphenyl]-4-yl)carbonyl]-10,11-dihydro-5H-pyrrolo[2,1-c][1,4]benzodiazepine-3-carboxylic acid (2-hydroxy-1,1-bis-hydroxymethyl-ethyl)-amide]
7 | – | 1430 | Cc1cc(C(=O)N2Cc3ccc(C(=O)N(C)C[C@H](O)[C@@H](O)[C@H](O)[C@H](O)CO)n3Cc3ccccc32)ccc1-c1ccccc1C(F)(F)F [Example 4, 10-[(2-Methyl-2′-trifluoromethyl-[1,1′-biphenyl]-4-yl)carbonyl]-10,11-dihydro-5H-pyrrolo[2,1-c][1,4]benzodiazepine-3-carboxylic acid methyl-((2S,3R,4R,5R)-2,3,4,5,6-pentahydroxy-hexyl)-amide]
8 | – | 2720 | Cc1cc(C(=O)N2Cc3ccc(C(=O)N4CCN(C[C@H](O)CO)CC4)n3Cc3ccccc32)ccc1-c1ccccc1C(F)(F)F [Example 5, (2S)-3-{4-[(10-{[2-Methyl-2′-trifluoromethyl-[1,1′-biphenyl]-4-yl]carbonyl}-10,11-dihydro-5H-pyrrolo[2,1-c][1,4]benzodiazepin-3-yl)carbonyl]piperazin-1-yl}propane-1,2-diol]
9 | – | 2410 | Cc1cc(C(=O)N2Cc3ccc(C(=O)N4CCN(C[C@@H](O)CO)CC4)n3Cc3ccccc32)ccc1-c1ccccc1C(F)(F)F [Example 6, (2R)-3-{4-[(10-{[2-Methyl-2′-trifluoromethyl-[1,1′-biphenyl]-4-yl]carbonyl}-10,11-dihydro-5H-pyrrolo[2,1-c][1,4]benzodiazepin-3-yl)carbonyl]piperazin-1-yl}propane-1,2-diol]
10 | -2 | – | COCCN1CCN(C(=O)c2ccc3n2Cc2ccccc2N(C(=O)c2ccc(-c4ccccc4C(F)(F)F)c(C)c2)C3)CC1 [Example 7, Methyl 2-{4-[(10-{[2-methyl-2′-trifluoromethyl-[1,1′-biphenyl]-4-yl]carbonyl}-10,11-dihydro-5H-pyrrolo[2,1-c][1,4]benzodiazepin-3-yl)carbonyl]piperazin-1-yl}ethyl ether]
11 | – | 1970 | COC[C@H](O)CN1CCN(C(=O)c2ccc3n2Cc2ccccc2N(C(=O)c2ccc(-c4ccccc4C(F)(F)F)c(C)c2)C3)CC1 [Example 8, (2R)-1-Methoxy-3-{4-[(10-{[2-methyl-2′-trifluoromethyl-[1,1′-biphenyl]-4-yl]carbonyl}-10,11-dihydro-5H-pyrrolo[2,1-c][1,4]benzodiazepin-3-yl)carbonyl]piperazin-1-yl}propan-2-ol]
12 | – | 2010 | COC[C@@H](O)CN1CCN(C(=O)c2ccc3n2Cc2ccccc2N(C(=O)c2ccc(-c4ccccc4C(F)(F)F)c(C)c2)C3)CC1 [Example 9, [3-({4-[(2S)-2-Hydroxy-3-methoxypropyl]-1-piperazinyl}carbonyl)-5H-pyrrolo[2,1-c][1,4]benzodiazepin-10(11H)-yl][2-methyl-2′-trifluoromethyl-[1,1′-biphenyl]-4-yl]methanone]
13 | – | 1800 | COCC(CN(C)C(=O)c1ccc2n1Cc1ccccc1N(C(=O)c1ccc(-c3ccccc3C(F)(F)F)c(C)c1)C2)OC (stereo not drawn) [Example 10, N-(2,3-Dimethoxypropyl)-N-methyl-10-{[2-methyl-2′-trifluoromethyl-[1,1′-biphenyl]-4-yl]carbonyl}-10,11-dihydro-5H-pyrrolo[2,1-c][1,4]benzodiazepine-3-carboxamide]
14 | – | 1370 | Cc1cc(C(=O)N2Cc3ccc(C(=O)N(C)CC4COC(=O)O4)n3Cc3ccccc32)ccc1-c1ccccc1C(F)(F)F (stereo not drawn) [Example 11, 10-[(2-Methyl-2′-trifluoromethyl-[1,1′-biphenyl]-4-yl)carbonyl]-10,11-dihydro-5H-pyrrolo[2,1-c][1,4]benzodiazepine-3-carboxylic acid methyl-[(2-oxo-[1,3]dioxolan-4-yl)methyl]-amide]
15 | – | 1620 | Cc1cc(C(=O)N2Cc3ccc(C(=O)N(C)C[C@@H]4OC(=O)O[C@H]4[C@H](O)[C@H]4COC(=O)O4)n3Cc3ccccc32)ccc1-c1ccccc1C(F)(F)F [Example 12, N-[((4S,5S)-5-{(R)-Hydroxy[(4R)-2-oxo-1,3-dioxolan-4-yl]methyl}-2-oxo-1,3-dioxolan-4-yl)methyl]-N-methyl-10-{[2-methyl-2′-(trifluoromethyl)[1,1′-biphenyl]-4-yl]carbonyl}-10,11-dihydro-5H-pyrrolo[2,1-c]benzodiazepine-3-carboxamide]
16 | – | 1200 | CC(=O)OCC(CN(C)C(=O)c1ccc2n1Cc1ccccc1N(C(=O)c1ccc(-c3ccccc3C(F)(F)F)c(C)c1)C2)OC(C)=O (stereo not drawn) [Example 13, 2-(Acetyloxy)-1-({methyl[(10-{[2-methyl-2′-trifluoromethyl-[1,1′-biphenyl]-4-yl]carbonyl}-10,11-dihydro-5H-pyrrolo[2,1-c][1,4]benzodiazepin-3-yl)carbonyl]amino}methyl)ethyl acetate]
17 | – | 144 | COc1ccccc1-c1ccc(C(=O)N2Cc3ccc(C(=O)N(C)CC(O)CO)n3Cc3ccccc32)cc1C (stereo not drawn) [Example 14, 10-[(2′-Methoxy-2-methyl-[1,1′-biphenyl]-4-yl)carbonyl]-10,11-dihydro-5H-pyrrolo[2,1-c][1,4]benzodiazepine-3-carboxylic acid (2,3-dihydroxy-propyl)-methyl-amide]
18 | – | 227 | COc1ccccc1-c1ccc(C(=O)N2Cc3ccc(C(=O)N(C)C[C@H](O)[C@@H](O)[C@H](O)[C@H](O)CO)n3Cc3ccccc32)cc1C [Example 17, 10-[(2′-Methoxy-2-methyl-[1,1′-biphenyl]-4-yl)carbonyl]-10,11-dihydro-5H-pyrrolo[2,1-c][1,4]benzodiazepine-3-carboxylic acid methyl-[(2S,3R,4R, 5R)-2,3,4,5,6-pentahydroxy-hexyl)-amide]
